Measured values reported in PubChem BioAssay (NCI).
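GI50 = concentration required for 50% inhibition of growth. TGI: concentration producing complete growth inhibition.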

Key:
Experiment in all cases: DTP human tumour cell line panel, 384-well format
NCI-H23 lung = system: NCI-H23 lung
PC-3 prostate = system: PC-3 prostate
IGROV1 ovarian = system: IGROV1 ovarian
HL-60(TB) leukemia = system: HL-60(TB) leukemia
DU-145 prostate = system: DU-145 prostate
SNB-75 CNS = system: SNB-75 CNS
MOLT-4 leukemia = system: MOLT-4 leukemia
LOX IMVI melanoma = system: LOX IMVI melanoma
SF-268 CNS = system: SF-268 CNS
HT29 colon = system: HT29 colon
RXF 393 renal = system: RXF 393 renal
KM12 colon = system: KM12 colon
NCI-H522 lung = system: NCI-H522 lung
SF-295 CNS = system: SF-295 CNS
MDA-MB-468 breast = system: MDA-MB-468 breast
MDA-MB-435 melanoma = system: MDA-MB-435 melanoma
SNB-19 CNS = system: SNB-19 CNS
HS 578T breast = system: HS 578T breast
OVCAR-4 ovarian = system: OVCAR-4 ovarian
UO-31 renal = system: UO-31 renal
CAKI-1 renal = system: CAKI-1 renal
A549 NSCLC = system: A549 NSCLC
SK-MEL-2 melanoma = system: SK-MEL-2 melanoma
HOP-92 NSCLC = system: HOP-92 NSCLC
OVCAR-3 ovarian = system: OVCAR-3 ovarian
TK-10 renal = system: TK-10 renal
SK-OV-3 ovarian = system: SK-OV-3 ovarian
MDA-MB-231 breast = system: MDA-MB-231 breast

**Q.** Which results are given for `Cn1nnc2c(C(N)=O)ncn2c1=O`?
**A.** TGI (NCI-H23 lung): > 100 µM; GI50 (PC-3 prostate): > 100 µM; TGI (PC-3 prostate): > 100 µM; GI50 (IGROV1 ovarian): > 100 µM; TGI (IGROV1 ovarian): > 100 µM; GI50 (HL-60(TB) leukemia): > 100 µM; TGI (HL-60(TB) leukemia): > 100 µM; GI50 (DU-145 prostate): > 100 µM; TGI (DU-145 prostate): > 100 µM; GI50 (SNB-75 CNS): > 100 µM; TGI (SNB-75 CNS): > 100 µM; GI50 (MOLT-4 leukemia): > 100 µM; TGI (MOLT-4 leukemia): > 100 µM; GI50 (LOX IMVI melanoma): > 100 µM; TGI (LOX IMVI melanoma): > 100 µM; GI50 (SF-268 CNS): > 100 µM; TGI (SF-268 CNS): > 100 µM; GI50 (HT29 colon): > 100 µM; TGI (HT29 colon): > 100 µM; GI50 (RXF 393 renal): > 100 µM; TGI (RXF 393 renal): > 100 µM; GI50 (KM12 colon): > 100 µM; TGI (KM12 colon): > 100 µM; GI50 (NCI-H522 lung): > 100 µM; TGI (NCI-H522 lung): > 100 µM; GI50 (SF-295 CNS): > 100 µM; TGI (SF-295 CNS): > 100 µM; GI50 (MDA-MB-468 breast): > 100 µM; TGI (MDA-MB-468 breast): > 100 µM; GI50 (MDA-MB-435 melanoma): > 100 µM; TGI (MDA-MB-435 melanoma): > 100 µM; GI50 (SNB-19 CNS): > 100 µM; TGI (SNB-19 CNS): > 100 µM; GI50 (HS 578T breast): > 100 µM; TGI (HS 578T breast): > 100 µM; GI50 (OVCAR-4 ovarian): > 100 µM; TGI (OVCAR-4 ovarian): > 100 µM; GI50 (UO-31 renal): > 100 µM; TGI (UO-31 renal): > 100 µM; GI50 (CAKI-1 renal): > 100 µM; TGI (CAKI-1 renal): > 100 µM; GI50 (A549 NSCLC): > 100 µM; TGI (A549 NSCLC): > 100 µM; GI50 (SK-MEL-2 melanoma): > 100 µM; TGI (SK-MEL-2 melanoma): > 100 µM; GI50 (HOP-92 NSCLC): > 100 µM; TGI (HOP-92 NSCLC): > 100 µM; GI50 (OVCAR-3 ovarian): > 100 µM; TGI (OVCAR-3 ovarian): > 100 µM; GI50 (TK-10 renal): > 100 µM; TGI (TK-10 renal): > 100 µM; GI50 (SK-OV-3 ovarian): > 100 µM; TGI (SK-OV-3 ovarian): > 100 µM; GI50 (MDA-MB-231 breast): > 100 µM; TGI (MDA-MB-231 breast): > 100 µM
